For one assay, the target named is T1, human NUCB1 (Homo sapiens, UniProt Q02818).
T1 construct: made in house; host or cells: Escherichia coli BL21(DE3)
T1 sequence (Q02818 27-461): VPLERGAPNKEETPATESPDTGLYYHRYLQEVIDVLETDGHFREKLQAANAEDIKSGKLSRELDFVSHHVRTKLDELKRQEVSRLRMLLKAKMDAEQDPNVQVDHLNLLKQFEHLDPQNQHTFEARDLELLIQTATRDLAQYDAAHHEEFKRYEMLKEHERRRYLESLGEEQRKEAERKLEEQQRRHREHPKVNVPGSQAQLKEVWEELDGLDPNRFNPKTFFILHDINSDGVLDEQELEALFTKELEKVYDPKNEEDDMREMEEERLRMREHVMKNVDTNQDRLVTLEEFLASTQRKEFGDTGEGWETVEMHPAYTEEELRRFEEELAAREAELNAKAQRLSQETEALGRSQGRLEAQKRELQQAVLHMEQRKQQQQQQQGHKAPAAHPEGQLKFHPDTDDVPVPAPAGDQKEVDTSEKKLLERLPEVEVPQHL
The assay can be described thus: FluoPol assay / high throughput screen with Fl-AEA and recombinant NUCB1. As to conditions: competitor lipids, recombinant NUCB1. Format: binding. Here is the method: FluoPol conditions were optimized by screening various concentrations of Fl-AEA, hNUCB1, CaCl2 and Pluronic F-127 against positive and negative controls. Arachidonic acid (20 μM final) was used as a positive control, and DMSO as a negative. Additionally, protein-free controls were used to normalize for background signal. […] The Z′-factor for these conditions was determined to be 0.54, indicating a high signal to noise assay.
A 10 μL solution of hNUCB1 (1 μM), Fl-AEA (0.5 μM), CaCl2 (20 μM), and Pluronic F-127 (0.01%) was added to a Greiner 384-well plate. Additionally, in some wells protein was omitted to serve as a blank control for background signal. To the protein containing wells 16,000 compounds (50 nL in DMSO, 2 mM) from the Maybridge Hitfinder library were added by a pin-tool robot. Additionally, on each plate to some wells arachidonic acid (20 μM final) or DMSO were added as positive and negative controls to allow normalization between plates. The plates were allowed to incubate for 5 minutes at room temperature, then fluorescence polarization was measured by measuring fluorescence intensity through polarized 595 nm filters. Hits were selected based on maximal probe competition.

Assay [1] deals with T2, lipid-binding proteins in Neuro2a cells (Mus musculus, UniProt Q505D7).
T2 construct: endogenous in cells; host or cells: Neuro2a
Put plainly: SILAC MS mapping of lipid probe targets (probe-versus-No UV, probe-versus-probe) in Neuro2a cells. In kind it is cell-based. As to conditions: AEA-DA probe vs NoUV.

Assay [2] addresses T3, lipid-binding proteins in Neuro2a cells (Mus musculus, UniProt Q8VCX5).
T3 construct: endogenous in cells; host or cells: Neuro2a
The assay is described as above. Format: cell-based. As to conditions: protein Micu1, AEA-DA probe, No UV control.

Assay [3] deals with T4, lipid-binding proteins in Neuro2a cells (Mus musculus, UniProt Q8R2Y0).
T4 construct: endogenous in cells; host or cells: Neuro2a
The assay is described as above. As to conditions: AEA-DA probe vs NoUV. In kind it is cell-based.

For assay [4], the target named is T5, lipid-binding proteins in Neuro2a cells (Mus musculus, UniProt Q78IK4).
T5 construct: endogenous in cells; host or cells: Neuro2a
The description is as above. Format: cell-based. The note with it: protein Apool, AEA-DA probe, No UV control.

In assay [5] the target is T6, lipid-binding proteins in Neuro2a cells (Mus musculus, UniProt Q99JY4).
T6 construct: endogenous in cells; host or cells: Neuro2a
The description is as above. Format: cell-based. As to conditions: AEA-DA probe vs NoUV.

The target of assay [6] is T7, lipid-binding proteins in Neuro2a cells (Mus musculus, UniProt Q60932).
T7 construct: endogenous in cells; host or cells: Neuro2a
Described as above. Format: cell-based. As to conditions: AEA-DA probe vs NoUV.

Assay [7] concerns the target T8, lipid-binding proteins in Neuro2a cells (Mus musculus, UniProt Q9R1J0).
T8 construct: endogenous in cells; host or cells: Neuro2a
The description is as above. Format: cell-based. As to conditions: AEA-DA probe vs NoUV.

For assay [8], the target named is T9, lipid-binding proteins in Neuro2a cells (Mus musculus, UniProt Q91V01).
T9 construct: endogenous in cells; host or cells: Neuro2a
Described as above. The note with it: AEA-DA probe vs NoUV. Format: cell-based.

Assay [9] addresses T10, lipid-binding proteins in Neuro2a cells (Mus musculus, UniProt Q8R0X7).
T10 construct: endogenous in cells; host or cells: Neuro2a
Described as above. The note with it: AEA-DA probe vs NoUV. Format: cell-based.

The values below come from patent publication US10168342B2, “Lipid probes and uses thereof” (THE SCRIPPS RESEARCH INSTITUTE, priority 2015, dated 2019).

SMILES strings stand for the structures.

T4 sequence (Q8R2Y0 whole entry): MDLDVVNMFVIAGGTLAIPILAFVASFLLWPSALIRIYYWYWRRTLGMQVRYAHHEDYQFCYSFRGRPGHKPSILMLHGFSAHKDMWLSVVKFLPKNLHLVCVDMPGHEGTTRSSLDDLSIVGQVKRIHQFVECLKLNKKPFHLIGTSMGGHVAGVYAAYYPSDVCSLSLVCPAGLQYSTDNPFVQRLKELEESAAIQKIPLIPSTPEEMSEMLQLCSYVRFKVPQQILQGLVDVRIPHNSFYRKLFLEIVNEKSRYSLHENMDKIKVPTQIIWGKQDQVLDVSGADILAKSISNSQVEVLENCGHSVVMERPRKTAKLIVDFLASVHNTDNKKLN
T7 sequence (Q60932 whole entry): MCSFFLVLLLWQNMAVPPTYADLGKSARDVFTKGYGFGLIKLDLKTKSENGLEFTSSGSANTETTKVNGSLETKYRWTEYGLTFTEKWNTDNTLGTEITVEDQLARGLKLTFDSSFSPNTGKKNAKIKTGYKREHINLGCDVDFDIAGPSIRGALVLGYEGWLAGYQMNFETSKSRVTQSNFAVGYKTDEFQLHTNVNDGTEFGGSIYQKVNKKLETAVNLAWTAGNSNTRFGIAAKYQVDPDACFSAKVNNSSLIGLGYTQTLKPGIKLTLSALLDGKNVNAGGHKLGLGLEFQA
T5 sequence (Q78IK4 28-265): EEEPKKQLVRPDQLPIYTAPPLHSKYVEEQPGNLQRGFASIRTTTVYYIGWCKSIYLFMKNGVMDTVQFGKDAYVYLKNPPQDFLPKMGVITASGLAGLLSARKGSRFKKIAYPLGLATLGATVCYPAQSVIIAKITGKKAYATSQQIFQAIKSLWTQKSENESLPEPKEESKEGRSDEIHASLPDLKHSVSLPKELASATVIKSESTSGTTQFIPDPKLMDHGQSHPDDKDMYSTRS
T6 sequence (Q99JY4 whole entry): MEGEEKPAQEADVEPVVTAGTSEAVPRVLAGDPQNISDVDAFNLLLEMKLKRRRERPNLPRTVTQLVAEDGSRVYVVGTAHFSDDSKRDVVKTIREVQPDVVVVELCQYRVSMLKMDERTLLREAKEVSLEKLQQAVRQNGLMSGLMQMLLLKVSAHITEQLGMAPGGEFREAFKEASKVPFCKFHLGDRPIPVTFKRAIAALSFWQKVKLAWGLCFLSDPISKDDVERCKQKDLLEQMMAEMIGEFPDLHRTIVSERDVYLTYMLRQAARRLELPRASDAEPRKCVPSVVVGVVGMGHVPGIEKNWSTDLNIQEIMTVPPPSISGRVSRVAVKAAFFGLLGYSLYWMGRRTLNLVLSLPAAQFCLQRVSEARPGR
T10 sequence (Q8R0X7 whole entry): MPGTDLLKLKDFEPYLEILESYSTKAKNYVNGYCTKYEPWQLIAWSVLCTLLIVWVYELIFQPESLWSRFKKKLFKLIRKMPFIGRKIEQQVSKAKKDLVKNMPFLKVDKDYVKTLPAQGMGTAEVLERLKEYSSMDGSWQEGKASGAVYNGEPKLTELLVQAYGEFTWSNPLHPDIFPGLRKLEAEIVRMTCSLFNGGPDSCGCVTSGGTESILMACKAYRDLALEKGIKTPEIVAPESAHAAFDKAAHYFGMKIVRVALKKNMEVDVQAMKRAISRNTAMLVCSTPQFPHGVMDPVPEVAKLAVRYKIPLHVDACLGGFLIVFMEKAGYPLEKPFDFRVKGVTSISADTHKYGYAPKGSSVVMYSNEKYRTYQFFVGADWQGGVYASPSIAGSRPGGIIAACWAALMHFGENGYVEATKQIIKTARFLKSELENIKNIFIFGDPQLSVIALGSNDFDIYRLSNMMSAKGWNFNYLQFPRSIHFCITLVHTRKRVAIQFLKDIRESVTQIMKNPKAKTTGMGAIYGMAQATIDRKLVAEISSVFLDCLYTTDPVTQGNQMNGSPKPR
T9 sequence (Q91V01 whole entry): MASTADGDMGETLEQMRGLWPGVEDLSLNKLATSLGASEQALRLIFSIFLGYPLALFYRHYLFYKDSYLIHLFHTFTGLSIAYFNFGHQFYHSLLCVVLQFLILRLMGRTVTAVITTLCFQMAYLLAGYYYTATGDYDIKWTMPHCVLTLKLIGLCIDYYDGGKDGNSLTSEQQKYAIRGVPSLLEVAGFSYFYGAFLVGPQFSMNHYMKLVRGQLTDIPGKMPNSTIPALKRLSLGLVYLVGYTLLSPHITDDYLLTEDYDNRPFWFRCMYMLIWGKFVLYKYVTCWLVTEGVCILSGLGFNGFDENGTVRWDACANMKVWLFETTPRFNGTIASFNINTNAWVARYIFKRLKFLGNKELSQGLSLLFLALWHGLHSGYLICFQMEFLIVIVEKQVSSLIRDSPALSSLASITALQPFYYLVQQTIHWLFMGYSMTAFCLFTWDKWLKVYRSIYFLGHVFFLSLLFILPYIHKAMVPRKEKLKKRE
T8 sequence (Q9R1J0 whole entry): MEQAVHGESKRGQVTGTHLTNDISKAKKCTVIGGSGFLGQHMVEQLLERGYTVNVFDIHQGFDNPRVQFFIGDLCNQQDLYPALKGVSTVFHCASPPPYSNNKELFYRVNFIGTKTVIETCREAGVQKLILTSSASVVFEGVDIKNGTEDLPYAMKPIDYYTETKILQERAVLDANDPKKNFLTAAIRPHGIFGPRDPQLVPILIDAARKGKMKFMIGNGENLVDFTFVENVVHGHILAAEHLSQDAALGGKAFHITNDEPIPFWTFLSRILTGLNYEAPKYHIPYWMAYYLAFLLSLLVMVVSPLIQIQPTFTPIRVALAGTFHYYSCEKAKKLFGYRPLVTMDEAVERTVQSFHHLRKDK
T2 sequence (Q505D7 whole entry): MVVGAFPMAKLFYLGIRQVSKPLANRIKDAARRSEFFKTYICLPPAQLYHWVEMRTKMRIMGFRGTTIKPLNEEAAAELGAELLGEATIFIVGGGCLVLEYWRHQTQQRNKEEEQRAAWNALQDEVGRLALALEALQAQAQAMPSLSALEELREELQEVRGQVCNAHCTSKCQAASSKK
T3 sequence (Q8VCX5 34-477): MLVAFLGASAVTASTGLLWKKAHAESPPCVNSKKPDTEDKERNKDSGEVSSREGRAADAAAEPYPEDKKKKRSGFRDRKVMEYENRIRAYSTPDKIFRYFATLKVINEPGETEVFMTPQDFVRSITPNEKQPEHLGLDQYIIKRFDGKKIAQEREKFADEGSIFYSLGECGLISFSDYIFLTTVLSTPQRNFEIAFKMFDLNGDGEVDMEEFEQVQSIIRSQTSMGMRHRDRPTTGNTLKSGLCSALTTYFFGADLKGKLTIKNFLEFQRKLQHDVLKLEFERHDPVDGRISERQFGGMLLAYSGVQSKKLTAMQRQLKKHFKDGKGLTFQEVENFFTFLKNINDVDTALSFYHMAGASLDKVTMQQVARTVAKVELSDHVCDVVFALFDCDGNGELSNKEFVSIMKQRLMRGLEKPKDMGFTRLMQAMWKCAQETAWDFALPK

As for `CCCCC/C=C\C/C=C\C/C=C\C/C=C\CCCC(=O)NCCO` [AEA, anandamide, reference compound], the “suppression of the NUCB1-FluoPol signal (blockade of Fl-AEA binding)” value at human NUCB1 is on record as “Concentration-dependent suppression”.
Take `C#CCCCC1(CC/C=C\C/C=C\C/C=C\CCCC(=O)NCCO)N=N1` [AEA-DA, (5Z,8Z,11Z)-N-(2-hydroxyethyl)-14-(3-(pent-4-yn-1-yl)-3H-diazirin-3-yl)tetradeca-5,8,11-trienamide]: the “SILAC ratio, OPA3 (Q505D7)” value in [1] stood at 20.0. For the same molecule, the “SILAC ratio, AEA-DA probe versus No UV” value was determined as 20.0 in assay [2] and 6.4 in assay [4]. Further, the “SILAC ratio, ABHD6 (Q8R2Y0)” value in assay [3] was 20.0. In assay [5], the “SILAC ratio, TRABD (Q99JY4)” value is recorded as 12.0. Further, the “SILAC ratio, VDAC1 (P21796)” value in assay [6] is on record as 20.0. For the same molecule, in assay [7], the “SILAC ratio, NSDHL (Q15738)” value worked out at 9.4. In addition, the “SILAC ratio, LPCAT3 (Q6P1A2)” value in [8] was found to be 18.7. Further, the “SILAC ratio, SGPL1 (O95470)” value in [9] was 20.0.
